# Test results taken from BindingDB's records for doi:10.1111/cbdd.12174 (Washington State University At Pullman, 2013).
# Biological target: T1, Glutamate carboxypeptidase 2 [44-750] (Homo sapiens, UniProt Q04609)
# T1 construct: 44-750
# Experiment: IC50 Assay
# Conditions: pH 7.4; 37 °C
# Description: Inhibitors were made in TRIS buffer (50mM Tris pH 7.4 containing 1% Triton X-100). Working solutions of purified GCPII (50ug/mL) were diluted in TRIS buffer to provide from 15% to 20% conversion of substrate to product in the absence of inhibitor. The incubation mixture (final volume 250μL) contained either 25μL of an inhibitor solution or 25μL TRIS buffer to 175μ TRIS buffer in a test tube, followed by the addition of PABGgG (25μL, […]). The enzymatic reaction was initiated by the addition of 25μL of the GCPII working solution and allowed to proceed for 15min with constant shaking at 37°C. The reaction was quenched by the addition of 25μL methanolic TFA (2% trifluoroacetic acid by volume in methanol) followed by vortexing. The quenched mixture was immediately buffered by the addition of 25μL K2HPO4 (0.1M), vortexed, and centrifuged.
# T1 sequence (Q04609 44-750): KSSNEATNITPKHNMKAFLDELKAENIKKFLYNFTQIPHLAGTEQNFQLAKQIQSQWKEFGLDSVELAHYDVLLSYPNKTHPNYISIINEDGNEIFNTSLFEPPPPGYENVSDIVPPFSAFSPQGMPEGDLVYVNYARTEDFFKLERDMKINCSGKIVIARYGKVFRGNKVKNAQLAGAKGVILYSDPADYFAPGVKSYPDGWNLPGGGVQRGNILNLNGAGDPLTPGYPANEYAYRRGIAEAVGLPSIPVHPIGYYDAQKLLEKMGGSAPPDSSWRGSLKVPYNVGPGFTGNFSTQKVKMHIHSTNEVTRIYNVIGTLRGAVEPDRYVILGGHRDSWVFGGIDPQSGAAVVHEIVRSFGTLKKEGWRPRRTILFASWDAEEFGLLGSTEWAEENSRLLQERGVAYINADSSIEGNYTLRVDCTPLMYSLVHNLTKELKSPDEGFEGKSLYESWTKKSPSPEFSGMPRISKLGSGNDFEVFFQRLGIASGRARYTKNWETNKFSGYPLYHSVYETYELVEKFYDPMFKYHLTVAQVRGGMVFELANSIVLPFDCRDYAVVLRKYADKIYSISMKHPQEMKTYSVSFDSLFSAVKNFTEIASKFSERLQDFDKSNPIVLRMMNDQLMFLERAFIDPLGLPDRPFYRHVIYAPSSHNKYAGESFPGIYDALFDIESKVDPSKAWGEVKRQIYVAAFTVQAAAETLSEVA
smiles,measurement,value
O=C(O)CC[C@H](NS(=O)(=O)NC[C@H](NC(=O)c1ccccc1)C(=O)O)C(=O)O [(S)-2-((N-((S)-2-benzamido-2-carboxyethyl)sulfamoyl)amino)pentanedioic acid (2b)],IC50,> 100 µM
